Here are results for six compounds from ChEMBL document CHEMBL1121377, “Synthesis and biological activities of chloroethylurea, methylurea, and nitrosourea analogues of N-deacetylmethylthiocolchicine” (1980).

Holding throughout (type): functional
Assay [1] relates to Human alphaherpesvirus 1. Kind of assay: Percent inhibition of herpes simplex type-1 virus at the concentration of 1 uM.
Another assay has as its system L1210. Kind of assay: In vitro inhibitory activity against murine leukemia L1210 cells. Conditions: Mus musculus, read-out: ED50 (the source's name).
A short description of assay [2]: In vitro inhibitory activity against Sarcoma 180 cells. The note with it: Mus musculus, read-out: ED50 (the source's name).
In assay [3] the test system is Human alphaherpesvirus 1. The assay can be described thus: Percent inhibition of herpes simplex type-1 virus at the concentration of 175 uM.
In assay [4] the test system is Human alphaherpesvirus 1. Kind of assay: Percent inhibition of herpes simplex type-1 virus at the concentration of 10 uM.
The test system of assay [5] is Human alphaherpesvirus 1. The assay can be described thus: Percent inhibition of herpes simplex type-1 virus at the concentration of 20 uM.
The test system of assay [6] is Human alphaherpesvirus 1. The assay can be described thus: Percent inhibition of herpes simplex type-1 virus at the concentration of 50 uM.

The compound `COc1cc2c(c(OC)c1OC)-c1ccc(SC)c(=O)cc1C(NC(=O)N(CCCl)N=O)CC2` (centres undefined) yielded an inhibition at 1 µM in the assay with Human alphaherpesvirus 1 [1] of 76%. Also, the EC50 worked out at 12 nM in the assay with L1210 and 27 nM in assay [2].

In turn, `CNC(=O)NC1CCc2cc(OC)c(OC)c(OC)c2-c2ccc(SC)c(=O)cc21` (centres undefined) displayed an inhibition at 175 µM in the assay with Human alphaherpesvirus 1 [3] of 85%. Besides, the EC50 in the assay with L1210 was determined as 33 nM; in assay [2], 29 nM.

Regarding `COc1cc2c(c(OC)c1OC)-c1ccc(SC)c(=O)cc1C(NC(=O)N(C)N=O)CC2` (centres undefined), the inhibition at 10 µM in the assay with Human alphaherpesvirus 1 [4] amounted to 86%. Besides, the EC50 with L1210 came out at 18 nM; in assay [2], 26 nM.

Regarding `COc1cc2c(c(OC)c1OC)-c1ccc(SC)c(=O)cc1C(NC(=O)NCCCl)CC2` (centres undefined), in the assay with Human alphaherpesvirus 1 [5], testing at 20 µM gave an inhibition of 72%. The EC50 in the assay on L1210 is 16 nM; in assay [2], 30 nM.

As to `O=NN(CCCl)C(=O)NCCCl` [CARMUSTINE], in the assay on L1210, the EC50 turned out to be 4000 nM.

In the assay with Human alphaherpesvirus 1 [6], `O=c1[nH]c(=O)n([C@H]2C[C@H](O)[C@@H](CO)O2)cc1I` [IDOXURIDINE] came in with an inhibition at 50 µM of 99.3%.
